Reference: the NIST ThermoML archive (doi:10.1021/je200853g)
Numbers after ± are expanded uncertainties.

Legend:
[1] = Crystal; DTA
[2] = Molar enthalpy of transition or fusion; settings: Crystal; DSC

Triple point temperature [1]: 433.18 ± 0.5 K
Molar enthalpy of transition or fusion [2]: 7.45 ± 0.217 kcal/mol
SMILES: Cc1ncc(CO)c(CO)c1O [5-hydroxy-6-methyl-3,4-pyridinedimethanol]
